Experimental data reported in PubChem BioAssay (NCI).
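Step 1: Grow cells in 96-well plates. Step 2: Expose to compound for 48 hours at 5 concentrations. Step 3: Interpolate endpoints linearly; if unreached, use highest concentration. At the GI50, growth is halved. The concentration for full growth arrest is given as TGI.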 *1 amine or outer side, *2 acyl side, *3 side chain or, on linkers, in order; H or OH if unused. Where a SMILES comes first, the peptide text is derived from it. CO = O=C([*:1])[*:2]

Columns and labels:
Assay in all cases: NCI tumour cell line growth inhibition, 48 h
[1] = system: M14 melanoma
[2] = system: MALME-3M melanoma
[3] = system: SK-OV-3 ovarian
[4] = system: CCRF-CEM leukemia
[5] = system: MOLT-4 leukemia
[6] = system: KM12 colon
[7] = system: IGROV1 ovarian
[8] = system: HCC-2998 colon
[9] = system: SF-295 CNS
[10] = system: DU-145 prostate

| SMILES | TGI [1] [µM] | TGI [2] [µM] | TGI [3] [µM] | TGI [4] [µM] | TGI [5] [µM] | TGI [6] [µM] | TGI [7] [µM] | TGI [8] [µM] | TGI [9] [µM] | GI50 [2] [µM] | GI50 [4] [µM] | GI50 [5] [µM] | GI50 [6] [µM] | GI50 [7] [µM] | GI50 [8] [µM] | GI50 [9] [µM] | TGI [10] [µM] | GI50 [1] [µM] | GI50 [3] [µM] | GI50 [10] [µM] |
| --- | --- | --- | --- | --- | --- | --- | --- | --- | --- | --- | --- | --- | --- | --- | --- | --- | --- | --- | --- | --- |
| Cc1ccc(NC(=O)/C(=N/NC(=O)CC#N)C2C(=O)N(c3ccccc3)N=C2N)cc1C (stereo unspecified) | > 100 | > 100 | > 100 | > 100 | > 100 | > 100 | > 100 | > 100 | > 100 | – | – | – | – | – | – | – | – | – | – | – |
| O=C1CC(c2ccccc2)NCN1 (stereo unspecified) | > 100 | > 100 | > 100 | > 100 | > 100 | > 100 | > 100 | > 100 | > 100 | – | – | – | – | – | – | – | – | – | – | – |
| N#C/C(=C\c1ccc(Br)cc1)n1nnc2cc(F)c(F)cc21 | – | 3.12 | – | 8.81 | 8.65 | 3.74 | 3.77 | 3.67 | 3.27 | 1.59 | 1.48 | 2.7 | 1.78 | 1.74 | 2.02 | 1.58 | – | – | – | – |
| N#CC(c1ccc(Cl)cc1)c1cccc(Cl)n1 (stereo unspecified) | > 100 | > 100 | > 100 | > 100 | > 100 | > 100 | – | > 100 | > 100 | – | – | – | – | – | – | – | – | – | – | – |
| O[C@H]1[C@H]2[C@H](O)CCCN2C[C@H]1O | > 100 | > 100 | > 100 | > 100 | > 100 | > 100 | > 100 | > 100 | > 100 | – | – | – | – | – | – | – | – | – | – | – |
| O=C1OC2(c3ccccc31)c1cc(I)c(O)c(I)c1Oc1c2cc(I)c(O)c1I | > 100 | > 100 | > 100 | > 100 | > 100 | 43.1 | > 100 | – | > 100 | – | – | – | – | – | – | – | > 100 | – | – | – |
| NC1=NN(c2ccccc2)C(=O)C1C(=O)C(=O)Nc1cccc(C(F)(F)F)c1 (stereo unspecified) | > 100 | > 100 | > 100 | > 100 | > 100 | > 100 | > 100 | > 100 | > 100 | – | – | – | – | – | – | – | – | – | – | – |
| C/C(=N\[N+](C)(C)C)C(c1ccccc1)C1(c2ccccc2)C(c2ccccc2)=C1c1ccccc1 (stereo unspecified) | > 100 | > 100 | > 100 | > 100 | > 100 | > 100 | > 100 | > 100 | > 100 | – | – | – | – | – | – | – | – | – | – | – |
| CC(=O)Oc1cc2c(=O)oc3c(OC(C)=O)c(OC(C)=O)c(OC(C)=O)c4c(=O)oc(c1OC(C)=O)c2c34 | > 100 | > 100 | > 100 | 63.3 | > 100 | > 100 | > 100 | > 100 | 52.9 | – | – | – | – | – | – | – | – | – | – | – |
| COc1cc(/C=C/C(=O)CC(=O)/C=C/c2ccc(OC(=O)CCNC34CC5CC(CC(C5)C3)C4)c(OC)c2)ccc1OC(=O)CCNC12CC3CC(CC(C3)C1)C2 | 14.1 | 17.9 | 27.2 | – | 16.2 | 7.8 | 8.08 | 4.37 | 6.99 | 5.28 | – | 3.08 | 2.95 | 3.52 | 1.93 | 2.56 | 3.13 | 3.48 | 6.75 | 1.4 |
| c1cncc(-c2cc(-c3cc(-c4cccnc4)n[nH]3)[nH]n2)c1 | > 100 | > 100 | > 100 | – | > 100 | > 100 | > 100 | > 100 | > 100 | – | – | – | – | – | – | – | > 100 | – | – | – |
| CC(C)C(NC(=O)C(CCCN=C(N)N)NC(=O)NC(Cc1ccccc1)C(=O)O)C(=O)NC(C=O)CCCN=C(N)N (stereo not drawn) ({Phe-CO}-Arg-Val-Arg-aldehyde; configuration not given here) | > 5 | > 5 | > 5 | – | – | > 5 | > 5 | > 5 | > 5 | > 5 | – | – | > 5 | > 5 | 0.0202 | > 5 | > 5 | > 5 | > 5 | > 5 |
| COC1=CC(C)C2C[C@H]3O[C@H](O)C[C@H]4C(C)C(=O)C(O)C([C@@]2(C)C1=O)[C@@]34C (stereo partly specified) | > 100 | > 100 | > 100 | > 100 | > 100 | > 100 | > 100 | > 100 | > 100 | – | – | – | – | – | – | – | – | – | – | – |
| O=C(/C=C\c1cccc2ccccc12)c1ccc(Br)cc1 | 32 | 81.6 | 93.6 | 50.6 | 82.2 | 28.3 | 46.1 | 31.7 | 46.5 | – | – | – | – | – | – | – | – | – | – | – |
